Values belong to the molecule of their own block, whether it stands above or below them. The source made the active and inactive calls. The rule behind the calls is not given here.
Experiments:
[1] = test system: CCRF-CEM; assay: Antiproliferative activity against human CCRF-CEM cells assessed as growth inhibition incubated for 48 hrs by SRB assay; format: functional
[2] = test system: HL-60; assay: Antiproliferative activity against human HL-60 cells assessed as growth inhibition incubated for 48 hrs by SRB assay; format: functional
[3] = test system: K562; assay: Antiproliferative activity against human K562 cells assessed as growth inhibition incubated for 48 hrs by SRB assay; format: functional
[4] = test system: SR; assay: Antiproliferative activity against human SR cells assessed as growth inhibition incubated for 48 hrs by SRB assay; format: functional
[5] = test system: HOP-62; assay: Antiproliferative activity against human HOP-62 cells assessed as growth inhibition incubated for 48 hrs by SRB assay; format: functional
[6] = test system: NCI-H23; assay: Antiproliferative activity against human NCI-H23 cells assessed as growth inhibition incubated for 48 hrs by SRB assay; format: functional
[7] = test system: NCI-H322M; assay: Antiproliferative activity against human NCI-H322M cells assessed as growth inhibition incubated for 48 hrs by SRB assay; format: functional
[8] = test system: NCI-H460; assay: Antiproliferative activity against human NCI-H460 cells assessed as growth inhibition incubated for 48 hrs by SRB assay; format: functional
[9] = test system: COLO 205; assay: Antiproliferative activity against human COLO 205 cells assessed as growth inhibition incubated for 48 hrs by SRB assay; format: functional
[10] = test system: HCC 2998; assay: Antiproliferative activity against human HCC 2998 cells assessed as growth inhibition incubated for 48 hrs by SRB assay; format: functional
[11] = test system: HCT-116; assay: Antiproliferative activity against human HCT-116 cells assessed as growth inhibition incubated for 48 hrs by SRB assay; format: functional
[12] = test system: HCT-15; assay: Antiproliferative activity against human HCT-15 cells assessed as growth inhibition incubated for 48 hrs by SRB assay; format: functional
[13] = test system: SF-295; assay: Antiproliferative activity against human SF-295 cells assessed as growth inhibition incubated for 48 hrs by SRB assay; format: functional
[14] = test system: SNB-75; assay: Antiproliferative activity against human SNB-75 cells assessed as growth inhibition incubated for 48 hrs by SRB assay; format: functional
[15] = test system: LOX IMVI; assay: Antiproliferative activity against human LOX IMVI cells assessed as growth inhibition incubated for 48 hrs by SRB assay; format: functional
[16] = test system: Malme-3M; assay: Antiproliferative activity against human Malme-3M cells assessed as growth inhibition incubated for 48 hrs by SRB assay; format: functional
[17] = test system: M14; assay: Antiproliferative activity against human M14 cells assessed as growth inhibition incubated for 48 hrs by SRB assay; format: functional
[18] = test system: MDA-MB-435; assay: Antiproliferative activity against human MDA-MB-435 cells assessed as growth inhibition incubated for 48 hrs by SRB assay; format: functional
[19] = test system: SK-MEL-28; assay: Antiproliferative activity against human SK-MEL-28 cells assessed as growth inhibition incubated for 48 hrs by SRB assay; format: functional
[20] = test system: IGROV-1; assay: Antiproliferative activity against human IGROV-1 cells assessed as growth inhibition incubated for 48 hrs by SRB assay; format: functional
[21] = test system: OVCAR-3; assay: Antiproliferative activity against human OVCAR-3 cells assessed as growth inhibition incubated for 48 hrs by SRB assay; format: functional
[22] = test system: OVCAR-5; assay: Antiproliferative activity against human OVCAR-5 cells assessed as growth inhibition incubated for 48 hrs by SRB assay; format: functional
[23] = test system: NCI/ADR-RES; assay: Antiproliferative activity against human NCI/ADR-RES cells assessed as growth inhibition incubated for 48 hrs by SRB assay; format: functional
[24] = test system: SK-OV-3; assay: Antiproliferative activity against human SK-OV-3 cells assessed as growth inhibition incubated for 48 hrs by SRB assay; format: functional
[25] = test system: 786-0; assay: Antiproliferative activity against human 786-0 cells assessed as growth inhibition incubated for 48 hrs by SRB assay; format: functional
[26] = test system: A498; assay: Antiproliferative activity against human A498 cells assessed as growth inhibition incubated for 48 hrs by SRB assay; format: functional
[27] = test system: ACHN; assay: Antiproliferative activity against human ACHN cells assessed as growth inhibition incubated for 48 hrs by SRB assay; format: functional
[28] = test system: CAKI-1; assay: Antiproliferative activity against human CAKI-1 cells assessed as growth inhibition incubated for 48 hrs by SRB assay; format: functional
[29] = test system: RXF 393; assay: Antiproliferative activity against human RXF 393 cells assessed as growth inhibition incubated for 48 hrs by SRB assay; format: functional
[30] = test system: SN12C; assay: Antiproliferative activity against human SN12C cells assessed as growth inhibition incubated for 48 hrs by SRB assay; format: functional
[31] = test system: TK-10; assay: Antiproliferative activity against human TK-10 cells assessed as growth inhibition incubated for 48 hrs by SRB assay; format: functional
[32] = test system: PC-3; assay: Antiproliferative activity against human PC-3 cells assessed as growth inhibition incubated for 48 hrs by SRB assay; format: functional
[33] = test system: DU-145; assay: Antiproliferative activity against human DU-145 cells assessed as growth inhibition incubated for 48 hrs by SRB assay; format: functional
[34] = test system: MCF7; assay: Antiproliferative activity against human MCF7 cells assessed as growth inhibition incubated for 48 hrs by SRB assay; format: functional
[35] = test system: Hs-578T; assay: Antiproliferative activity against human Hs-578T cells assessed as growth inhibition incubated for 48 hrs by SRB assay; format: functional
[36] = test system: BT-549; assay: Antiproliferative activity against human BT-549 cells assessed as growth inhibition incubated for 48 hrs by SRB assay; format: functional
[37] = test system: T47D; assay: Antiproliferative activity against human T47D cells assessed as growth inhibition incubated for 48 hrs by SRB assay; format: functional
[38] = test system: MDA-MB-468; assay: Antiproliferative activity against human MDA-MB-468 cells assessed as growth inhibition incubated for 48 hrs by SRB assay; format: functional
[39] = test system: Quadruplex DNA; assay: Stabilization of human telomeric 23 hybrid G4 quadruplex DNA incubated for 10 mins by circular dichroism spectroscopic analysis; format: nucleic-acid assay
[40] = test system: Quadruplex DNA; assay: Stabilization of human telomeric 26 hybrid G4 quadruplex DNA incubated for 10 mins by circular dichroism spectroscopic analysis; format: nucleic-acid assay
[41] = test system: Quadruplex DNA; assay: Thermal stabilization of human c-Myc G4 quadruplex DNA assessed as change in melting temperature (deltaT1/2) incubated for 10 mins by circular dichroism spectroscopic analysis (reference value: 70.5 +/- 0.1 degreeC); format: nucleic-acid assay
[42] = test system: Quadruplex DNA; assay: Thermal stabilization of human Tel23-p G4 quadruplex DNA assessed as change in melting temperature (deltaT1/2) incubated for 10 mins by circular dichroism spectroscopic analysis (reference value: 68.2 +/- 0.1 degreeC); format: nucleic-acid assay
[43] = test system: Quadruplex DNA; assay: Thermal stabilization of human Tel23-hy G4 quadruplex DNA assessed as change in melting temperature (deltaT1/2) incubated for 10 mins by circular dichroism spectroscopic analysis (reference value: 48 +/- 0.1 degreeC); format: nucleic-acid assay
[44] = molecular target: DNA topoisomerase 1 (Homo sapiens) (UniProt P11387); assay: Inhibition of human Topoisomerase 1 assessed as relaxation of supercoiled plasmid pBR322 DNA at 2.5 uM incubated for 1 hr by ethidium bromide staining based agarose gel electrophoresis
[45] = species: Homo sapiens; assay: Inhibition of human Topoisomerase II assessed as relaxation of supercoiled plasmid pBR322 DNA at 2.5 uM incubated for 1 hr by ethidium bromide staining based agarose gel electrophoresis

Chain of DNA topoisomerase 1 (Homo sapiens) (P11387 whole entry): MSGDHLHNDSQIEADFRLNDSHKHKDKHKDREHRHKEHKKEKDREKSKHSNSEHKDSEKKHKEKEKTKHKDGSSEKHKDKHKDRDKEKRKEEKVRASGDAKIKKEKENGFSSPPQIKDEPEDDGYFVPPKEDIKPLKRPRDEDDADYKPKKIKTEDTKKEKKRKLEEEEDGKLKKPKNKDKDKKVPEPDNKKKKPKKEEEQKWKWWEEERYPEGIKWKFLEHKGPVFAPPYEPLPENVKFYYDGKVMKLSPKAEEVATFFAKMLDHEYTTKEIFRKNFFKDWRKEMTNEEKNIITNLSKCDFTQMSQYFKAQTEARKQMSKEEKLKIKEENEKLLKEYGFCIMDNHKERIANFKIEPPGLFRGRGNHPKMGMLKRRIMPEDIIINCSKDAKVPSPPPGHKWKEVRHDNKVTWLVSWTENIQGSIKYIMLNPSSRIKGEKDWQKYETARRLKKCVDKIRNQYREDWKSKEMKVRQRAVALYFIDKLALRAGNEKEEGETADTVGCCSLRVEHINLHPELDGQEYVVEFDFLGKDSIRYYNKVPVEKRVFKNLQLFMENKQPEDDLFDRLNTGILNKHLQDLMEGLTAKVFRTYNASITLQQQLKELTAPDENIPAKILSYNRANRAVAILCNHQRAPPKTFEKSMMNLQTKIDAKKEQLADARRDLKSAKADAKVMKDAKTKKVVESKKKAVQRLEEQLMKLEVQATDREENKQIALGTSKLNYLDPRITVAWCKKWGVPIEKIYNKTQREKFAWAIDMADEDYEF

Activity [39]: Active | Activity [40]: Active | ΔTm [41]: > 20 °C | ΔTm [42]: > 20 °C | ΔTm [43]: 11 °C | inhibition [44]: Active | inhibition [45]: Active
Structure (SMILES): CCN(CC)CCn1c2ccc(OC)cc2c2sc3cc(OC)ccc3c(=O)c21
GI [1]: 1.04 µM | GI [2]: 1.77 µM | GI [3]: 0.728 µM | GI [4]: 0.704 µM | GI [5]: 2.32 µM | GI [6]: 1.9 µM | GI [7]: 1.59 µM | GI [8]: 1.08 µM | GI [9]: 1.39 µM | GI [10]: 1.48 µM | GI [11]: 0.659 µM | GI [12]: 0.861 µM | GI [13]: 1.82 µM | GI [14]: 1.11 µM | GI [15]: 1.3 µM | GI [16]: 1.59 µM | GI [17]: 1.64 µM | GI [18]: 1.73 µM | GI [19]: 1.7 µM | GI [20]: 1.53 µM | GI [21]: 2.12 µM | GI [22]: 1.92 µM | GI [23]: 1.24 µM | GI [24]: 3.07 µM | GI [25]: 1.59 µM | GI [26]: 1.12 µM | GI [27]: 1 µM | GI [28]: 1.65 µM | GI [29]: 1.4 µM | GI [30]: 2.03 µM | GI [31]: 2.33 µM | GI [32]: 1.34 µM | GI [33]: 1.67 µM | GI [34]: 1.16 µM | GI [35]: 1.96 µM | GI [36]: 2.24 µM | GI [37]: 2 µM | GI [38]: 1.56 µM

Activity [39]: Active | Activity [40]: Active | ΔTm [41]: > 20 °C | ΔTm [42]: > 20 °C | ΔTm [43]: 9.6 °C | inhibition [44]: Active | inhibition [45]: Active
Structure (SMILES): CCN(CC)CCn1c2ccc(O)cc2c2sc3cc(OC)ccc3c(=O)c21
GI [1]: 1.09 µM | GI [2]: 1.72 µM | GI [3]: 1.24 µM | GI [4]: 1.11 µM | GI [5]: 6.03 µM | GI [6]: 1.56 µM | GI [7]: 6.89 µM | GI [8]: 1.22 µM | GI [9]: 3.08 µM | GI [10]: 1.47 µM | GI [11]: 1.07 µM | GI [12]: 1.2 µM | GI [13]: 5.35 µM | GI [14]: 2.39 µM | GI [15]: 1.21 µM | GI [16]: 1.87 µM | GI [17]: 1.64 µM | GI [18]: 1.64 µM | GI [19]: 1.8 µM | GI [20]: 1.59 µM | GI [21]: 2.19 µM | GI [22]: 2.22 µM | GI [23]: 1.23 µM | GI [24]: 13.4 µM | GI [25]: 1.39 µM | GI [26]: 3.08 µM | GI [27]: 1.13 µM | GI [28]: 3.73 µM | GI [29]: 1.31 µM | GI [30]: 5.83 µM | GI [31]: 9.05 µM | GI [32]: 1.82 µM | GI [33]: 1.71 µM | GI [34]: 1.18 µM | GI [35]: 1.95 µM | GI [36]: 6.08 µM | GI [37]: 14.2 µM | GI [38]: 1.54 µM

From ChEMBL document CHEMBL6127154, “Pursuing Polypharmacology: Benzothiopyranoindoles as G-Quadruplex Stabilizers and Topoisomerase I Inhibitors for Effective Anticancer Strategies” (ACS Med Chem Lett, 2024)
